Where two headings read alike, the source gives them in different places.
Tests used:
MOLT-4 cells = assay: Cell viability assay, MTS, 48 h, MOLT-4; type: cell-based; details: 48 hours, read-out: IC50 (48 hours) MOLT-4
Protocol: (§1) Acute lymphoblastic leukemia cells (MOLT-4 and RS4; 11) or small cell lung cancer (NCI-H146 or simply H146) were incubated with increasing concentrations of Bcl-xL degraders for 48 h. Cell viability was measured by tetrazolium-based MTS assay.

RS4;11 cells = assay: Cell viability assay, MTS, 48 h, RS4;11; type: cell-based; details: 48 hours, read-out: IC50 (48 hours) RS4;11
Protocol: as §1

Row | IC50 (MOLT-4 cells; Homo sapiens, MOLT-4, 48 h) [nM] | IC50 (RS4;11 cells; Homo sapiens, RS4-11, 48 h) [nM] | IC50 (MOLT-4 cells) [nM] | IC50 (RS4;11 cells) [nM] | Compound
1 | 50 to 150 | 150 to 500 |  |  | Cc1ncsc1-c1ccc([C@H](C)NC(=O)[C@@H]2C[C@@H](O)CN2C(=O)[C@@H](NC(=O)CCCCCCC(=O)N2CCN(C[C@@]3(C)CCC(c4ccc(Cl)cc4)=C(CN4CCN(c5ccc(C(=O)NS(=O)(=O)c6ccc(N[C@H](CCN7CCOCC7)CSc7ccccc7)c(S(=O)(=O)C(F)(F)F)c6)cc5)CC4)C3)CC2)C(C)(C)C)cc1 [degrader #43, (2S,4R)-1-((S)-2-(8-(4-(((S)-4′-chloro-4-methyl-6-((4-(4-(((4-(((R)-4-morpholino-1-(phenylthio)butan-2-yl)amino)-3-((trifluoromethyl)sulfonyl)phenyl)sulfonyl)carbamoyl)phenyl)piperazin-1-yl)methyl)-2,3,4,5-tetrahydro-[1,1′-biphenyl]-4-yl)methyl)piperazin-1-yl)-8-oxooctanamido)-3,3-dimethylbutanoyl)-4-hydroxy-N—((S)-1-(4-(4-methylthiazol-5-yl)phenyl)ethyl)pyrrolidine-2-carboxamide]
2 | 150 to 500 | 150 to 500 |  |  | Cc1ncsc1-c1ccc([C@H](C)NC(=O)[C@@H]2C[C@@H](O)CN2C(=O)[C@@H](NC(=O)CCCCCCCCCC(=O)N2CCN(CC3(C)CCC(c4ccc(Cl)cc4)=C(CN4CCN(c5ccc(C(=O)NS(=O)(=O)c6ccc(N[C@H](CCN7CCOCC7)CSc7ccccc7)c(S(=O)(=O)C(F)(F)F)c6)cc5)CC4)C3)CC2)C(C)(C)C)cc1 (stereo partly drawn) [degrader #20, (2S,4R)-1-((2S)-2-(11-(4-((4′-chloro-4-methyl-6-((4-(4-(((4-(((R)-4-morpholino-1-(phenylthio)butan-2-yl)amino)-3-((trifluoromethyl)sulfonyl)phenyl)sulfonyl)carbamoyl)phenyl)piperazin-1-yl)methyl)-2,3,4,5-tetrahydro-[1,1′-biphenyl]-4-yl)methyl)piperazin-1-yl)-11-oxoundecanamido)-3,3-dimethylbutanoyl)-4-hydroxy-N—((S)-1-(4-(4-methylthiazol-5-yl)phenyl)ethyl)pyrrolidine-2-carboxamide]
3 | 50 to 150 | < 50 |  |  | Cc1ncsc1-c1ccc([C@H](C)NC(=O)[C@@H]2C[C@@H](O)CN2C(=O)[C@@H](NC(=O)CCCCCC(=O)N2CCCN(CC3(C)CCC(c4ccc(Cl)cc4)=C(CN4CCN(c5ccc(C(=O)NS(=O)(=O)c6ccc(N[C@H](CCN7CCOCC7)CSc7ccccc7)c(S(=O)(=O)C(F)(F)F)c6)cc5)CC4)C3)CC2)C(C)(C)C)cc1 (stereo partly drawn) [degrader #21, (2S,4R)-1-((2S)-2-(7-(4-((4′-chloro-4-methyl-6-((4-(4-(((4-(((R)-4-morpholino-1-(phenylthio)butan-2-yl)amino)-3-((trifluoromethyl)sulfonyl)phenyl)sulfonyl)carbamoyl)phenyl)piperazin-1-yl)methyl)-2,3,4,5-tetrahydro-[1,1′-biphenyl]-4-yl)methyl)-1,4-diazepan-1-yl)-7-oxoheptanamido)-3,3-dimethylbutanoyl)-4-hydroxy-N—((S)-1-(4-(4-methylthiazol-5-yl)phenyl)ethyl)pyrrolidine-2-carboxamide]
4 |  |  | 50 to 150 | 50 to 150 | Cc1ncsc1-c1ccc([C@H](C)NC(=O)[C@@H]2C[C@@H](O)CN2C(=O)[C@@H](NC(=O)CCCCCN2CCN(CC3(C)CCC(c4ccc(Cl)cc4)=C(CN4CCN(c5ccc(C(=O)NS(=O)(=O)c6ccc(N[C@H](CCN7CCOCC7)CSc7ccccc7)c(S(=O)(=O)C(F)(F)F)c6)cc5)CC4)C3)CC2)C(C)(C)C)cc1 (stereo partly drawn) [compound 69, (2S,4R)-1-((2S)-2-(6-(4-((4′-chloro-4-methyl-6-((4-(4-(((4-(((R)-4-morpholino-1-(phenylthio)butan-2-yl)amino)-3-((trifluoromethyl)sulfonyl)phenyl)sulfonyl)carbamoyl)phenyl)piperazin-1-yl)methyl)-2,3,4,5-tetrahydro-[1,1′-biphenyl]-4-yl)methyl)piperazin-1-yl)hexanamido)-3,3-dimethylbutanoyl)-4-hydroxy-N—((S)-1-(4-(4-methylthiazol-5-yl)phenyl)ethyl)pyrrolidine-2-carboxamide]
5 | < 50 | < 50 |  |  | Cc1ncsc1-c1ccc([C@H](C)NC(=O)[C@@H]2C[C@@H](O)CN2C(=O)[C@@H](NC(=O)CC2CCC(CC(=O)N3CCN(CC4(C)CCC(c5ccc(Cl)cc5)=C(CN5CCN(c6ccc(C(=O)NS(=O)(=O)c7ccc(N[C@H](CCN8CCOCC8)CSc8ccccc8)c(S(=O)(=O)C(F)(F)F)c7)cc6)CC5)C4)CC3)CC2)C(C)(C)C)cc1 (stereo partly drawn) [degrader #40]

More lines, now with the values behind:

Row | Compound | IC50 (MOLT-4 cells; Homo sapiens, MOLT-4, 48 h) [nM] | IC50 (RS4;11 cells; Homo sapiens, RS4-11, 48 h) [nM] | IC50 (MOLT-4 cells) [nM] | IC50 (RS4;11 cells) [nM]
6 | Cc1ncsc1-c1ccc([C@H](C)NC(=O)[C@@H]2C[C@@H](O)CN2C(=O)[C@@H](NC(=O)CCCCCCCCCCC(=O)N2CCC(c3ccc(Cl)cc3)=C(CN3CCN(c4ccc(C(=O)NS(=O)(=O)c5ccc(N[C@H](CCN6CCOCC6)CSc6ccccc6)c(S(=O)(=O)C(F)(F)F)c5)cc4)CC3)C2)C(C)(C)C)cc1 [compound 85, (2S,4R)-1-((S)-2-(12-(4-(4-chlorophenyl)-5-((4-(4-(((4-(((R)-4-morpholino-1-(phenylthio)butan-2-yl)amino)-3-((trifluoromethyl)sulfonyl)phenyl)sulfonyl)carbamoyl)phenyl)piperazin-1-yl)methyl)-3,6-dihydropyridin-1(2H)-yl)-12-oxododecanamido)-3,3-dimethylbutanoyl)-4-hydroxy-N—((S)-1-(4-(4-methylthiazol-5-yl)phenyl)ethyl)pyrrolidine-2-carboxamide] | 50 to 150 | 50 to 150 |  | 
7 | Cc1ncsc1-c1ccc([C@H](C)NC(=O)[C@@H]2C[C@@H](O)CN2C(=O)[C@@H](NC(=O)CCCCCC(=O)N[C@H]2CCCN(CC3(C)CCC(c4ccc(Cl)cc4)=C(CN4CCN(c5ccc(C(=O)NS(=O)(=O)c6ccc(N[C@H](CCN7CCOCC7)CSc7ccccc7)c(S(=O)(=O)C(F)(F)F)c6)cc5)CC4)C3)C2)C(C)(C)C)cc1 (stereo partly drawn) [degrader #46, N1-((3S)-1-((4′-chloro-4-methyl-6-((4-(4-(((4-(((R)-4-morpholino-1-(phenylthio)butan-2-yl)amino)-3-((trifluoromethyl)sulfonyl)phenyl)sulfonyl)carbamoyl)phenyl)piperazin-1-yl)methyl)-2,3,4,5-tetrahydro-[1,1′-biphenyl]-4-yl)methyl)piperidin-3-yl)-N7-((S)-1-((2S,4R)-4-hydroxy-2-(((S)-1-(4-(4-methylthiazol-5-yl)phenyl)ethyl)carbamoyl)pyrrolidin-1-yl)-3,3-dimethyl-1-oxobutan-2-yl)heptanediamide] | 150 to 500 | 50 to 150 |  | 
8 | Cc1ncsc1-c1ccc([C@H](C)NC(=O)[C@@H]2C[C@@H](O)CN2C(=O)[C@@H](NC(=O)CCCC(=O)N2CCN(CCN(C)CC3(C)CCC(c4ccc(Cl)cc4)=C(CN4CCN(c5ccc(C(=O)NS(=O)(=O)c6ccc(N[C@H](CCN7CCOCC7)CSc7ccccc7)c(S(=O)(=O)C(F)(F)F)c6)cc5)CC4)C3)CC2)C(C)(C)C)cc1 (stereo partly drawn) [compound 57] | 150 to 500 | 150 to 500 |  | 
9 | CC1(CNC(=O)CCCCCCNc2cccc3c2C(=O)N(C2CCC(=O)NC2=O)C3=O)CCC(c2ccc(Cl)cc2)=C(CN2CCN(c3ccc(C(=O)NS(=O)(=O)c4ccc(N[C@H](CCN5CCOCC5)CSc5ccccc5)c(S(=O)(=O)C(F)(F)F)c4)cc3)CC2)C1 (stereo partly drawn) [compound 72, 4-(4-((4′-chloro-4-((7-((2-(2,6-dioxopiperidin-3-yl)-1,3-dioxoisoindolin-4-yl)amino)heptanamido)methyl)-4-methyl-3,4,5,6-tetrahydro-[1,1′-biphenyl]-2-yl)methyl)piperazin-1-yl)-N-((4-(((R)-4-morpholino-1-(phenylthio)butan-2-yl)amino)-3-((trifluoromethyl)sulfonyl)phenyl)sulfonyl)benzamide] | < 50 | < 50 |  | 

Source: patent US20220169628A1 (University of Florida Research Foundation, Incorporated, priority 2019, published 2022)
